Experimental data reported in patent US20210293788A1, “METHOD FOR IDENTIFYING A CHEMICAL COMPOUND OR AGENT INDUCING UBIQUITINATION OF A PROTEIN OF INTEREST” (CeMM - Forschungszentrum fur Molekulare Medizin GmbH, priority 2018, published 2021).
Entries after “also recorded” stand apart in the source; their conditions may differ.

Assays:
[1] = target: T1, RBM39 (Homo sapiens, UniProt Q14498+Q66K64); experiment: Western blot of RBM39 levels in 293T DCAF15 KO versus DCAF15-reconstituted cells; format: cell-based; set-up: endogenous in cells; host or cells: 293T DCAF15 KO and 293T reconstituted with tagged DCAF15; conditions: 293T cells reconstituted with tagged DCAF15, 10 h treatment
Description: (§1) Given the structural similarity to indisulam, it was assayed if the two new test compounds would similarly lead to the degradation of RBM39 in a DCAF15-dependent manner. Towards that end, their effect on RBM39 levels in wildype cells as well as cells deficient for DCAF15 levels was tested. KBM7 (WT or knockout, FIG. 20) as well as 293T cells (DCAF15-HiBit overexpression vs knockout, see FIG. 21) were tested in various conditions of dCEMM.1 and/or dCEMM.2, comparing their effect to indisulam.

[2] = target: T1, RBM39; experiment: Western blot of RBM39 levels in KBM7 WT versus DCAF15-deficient cells; format: cell-based; set-up: endogenous in cells; conditions: 12 or 16 h treatment
Description: as §1

[3] = test system: KBM7 cells; experiment: Dose-ranging cellular viability assays in neddylation-impaired isogenic KBM7 cells; format: cell-based, human
Description: KBM7 cells mutated for five core genes were isolated and the underlying CRISPR-induced mutations were truncations leading to full knockouts (CAND1) or hypomorphic alleles (UBE2M, COPS8, COPS7B, GPS1). […] The observable shift in efficacy was at least 10-fold and up to 1000-fold, thus providing excellent signal to noise ratios. In sum, neddylation-impaired (NEDD^mut) cell line can be applied to find novel, yet uncharacterized MGs.
This is further exemplified when said cells are treated with the compound CC-885 (a molecular glue that reprograms the substrate receptor cereblon/CRBN to degrade GSPT1), or the PROTAC® compound THAL-SNS-032 (known to reprogram the substrate receptor cereblon/CRBN to degrade the cyclin dependent kinase 9, CDK9) (both see appended FIG. 22).
However, not for every cullin RING ligase (CRL), modifications of the COP9 signalosome subunit 8 (COPS8) or CAND1 (Cullin-associated NEDD8-dissociated protein 1; a substrate receptor exchange factor) lead to an ensuing destabilization via auto-degradation. An example for this is the substrate receptor VHL(von-Hippel-Lindau), which is part of the CRL2^VHL ligase complex. […] Therefore, measuring differential sensitivity of cells manipulated to contain altered neddylation states to a molecular glue/PROTAC® compound is a feasible surrogate to measure whether the substrate receptor that is reprogrammed by said molecular glue/PROTAC® undergoes destabilization/auto-degradation upon altering the neddylation states.

[4] = target: T2, DCAF15 (Homo sapiens, UniProt Q66K64); experiment: DCAF15 HiBit/LgBit luciferase assay (knock-in or ectopic, live-cell or lytic detection); format: cell-based
T2 construct: expressed in transfected cells
Description: Generation of HiBit DCAF15 knock-in cells: HEK293t WT cells at 70-80% confluency were transiently transfected in a 6 well plate with a mix of 3 ug Cas9-sgRNA vector (PX458, addgene #48138, containing sgRNA [NT]), 6 ug of single stranded oligonucleotide donor (ssOND, 20 bp homology flanking the cut site) and 3.6 ug polyethylenimine (FIGS. 10 and 12). 72 hrs post-transfection cells were sorted (SH800 Cell sorter, SONY) for GFP positive cells and recovered for 24 hrs in media. Cells were subsequently seeded at a limiting dilution to generate single clones. Clones were tested after outgrowth for HiBit expression by seeding clonal cells in a black clear bottom 384 well plate and adding Nano-Glo HiBit Lytic buffer (Promega, N3030) reconstituted with recombinant LgBit and Nano-Glo HiBit Lytic Substrate in a 1:1 ratio. HiBit-expressing clones were validated by western blotting and detection of luciferase signal (Promega, N2410) at the correct size. For live cell luciferase detection (FIGS. 11 and 13) 7000 HEK293t cells with a HiBit knock-in at the N-terminus of DCAF15 and stable ectopic expression of LgBit were seeded in 10 uL per well into a black, clear-bottom 384 well plate (Corning, #3764) and incubated over night. 20 uL of media containing 1× Endurazine (Promega, N2570) was added to each well and incubated for 1 hour followed by a baseline luciferase measurement using an EnVision plate reader (Perkin Elmer). Subsequently CSN5i-3 or an equal volume of DMSO was added in 10 uL of media to a final concentration of 500 nM in the assay volume of 40 uL. Luciferase signal was measured hourly for 24 hours. For lytic HiBit detection (FIGS. 11 and 14) 10000 cells were seeded in 10 uL per well into a black clear bottom 384 well plate. After recovery cells were treated by addition of iCSN5-3 or an equal volume of DMSO in 10 uL of media to the cells. After the indicated treatment time cells were lysed by adding 20 uL Nano-Glo HiBit Lytic buffer (Promega, N3030) reconstituted with recombinant LgBit and Nano-Glo HiBit Lytic Substrate. Luciferase signal of each well was normalized to the mean DMSO luciferase signal yielding fold-change over DMSO. Luciferase signal was detected essentially as stated for FIG. 13 with the exception that indisulam (Sigma-Aldrich, SML1225) was added together with CSN5i-3 to cells in 10 uL of media to reach the indicated final concentration (FIG. 15). Luciferase signal of each well and timepoint was normalized to the mean DMSO luciferase signal yielding fold-change over DMSO. […] Luciferase signal was detected essentially as stated for FIG. 15 with the exception that indisulam and dCEMM.1 were added together with iCSN5-3 to cells in the 10 uL treatment to a final concertation of 10 uM (FIG. 17). Luciferase signal of each well and timepoint was normalized to the mean DMSO luciferase signal yielding fold-change over DMSO.

[5] = target: T2, DCAF15; experiment: High-throughput screen for DCAF15 stabilization in 293T cells expressing DCAF15 HiBit fusion; format: cell-based; conditions: 10 uM, 384 well, measurements every 120 minutes
From the text: Subsequently, in this context, the E3 ligase substrate receptor (SR) stabilization approach was employed in order to identify novel chemical matter that can bind and chemically re-program the substrate receptor DCAF15. To be able to screen a collection of around 8000 small-molecules, a cellular system was developed that enabled monitoring of DCAF15 levels in live cells in multi-well format. To that end, DCAF15 was first knocked out in 293T cells via CRISPR/Cas9 technology. Then, DCAF15 was stably expressed as a HiBit® fusion protein in these cells. After further transducing these cells with LgBit, this allowed live-cell tracing of DCAF15 levels in 384 well format by measuring bioluminescence (FIG. 18). In brief, cells were seeded at a concentration of 250′000 cells/ml in DMEM+10% FCS+25 mM Hepes. The luciferase substrate Endurazine was added at concentrations recommended by the manufacturer. Small-molecules were added at a concentration of 10 uM, and their effect on DCAF15 levels was assayed by continuous bioluminescent imaging (measurements were taken every 120 minutes). […] The known DCAF15 molecular glue indisulam (see FIG. 7) was used as a positive control. In brief, indisulam is known to act as a DCAF15-dependent molecular glue that binds DCAF15 and induced proximity between DCAF15 and RBM39, leading to the degradation of the latter.

T2 sequence (Q66K64 whole entry): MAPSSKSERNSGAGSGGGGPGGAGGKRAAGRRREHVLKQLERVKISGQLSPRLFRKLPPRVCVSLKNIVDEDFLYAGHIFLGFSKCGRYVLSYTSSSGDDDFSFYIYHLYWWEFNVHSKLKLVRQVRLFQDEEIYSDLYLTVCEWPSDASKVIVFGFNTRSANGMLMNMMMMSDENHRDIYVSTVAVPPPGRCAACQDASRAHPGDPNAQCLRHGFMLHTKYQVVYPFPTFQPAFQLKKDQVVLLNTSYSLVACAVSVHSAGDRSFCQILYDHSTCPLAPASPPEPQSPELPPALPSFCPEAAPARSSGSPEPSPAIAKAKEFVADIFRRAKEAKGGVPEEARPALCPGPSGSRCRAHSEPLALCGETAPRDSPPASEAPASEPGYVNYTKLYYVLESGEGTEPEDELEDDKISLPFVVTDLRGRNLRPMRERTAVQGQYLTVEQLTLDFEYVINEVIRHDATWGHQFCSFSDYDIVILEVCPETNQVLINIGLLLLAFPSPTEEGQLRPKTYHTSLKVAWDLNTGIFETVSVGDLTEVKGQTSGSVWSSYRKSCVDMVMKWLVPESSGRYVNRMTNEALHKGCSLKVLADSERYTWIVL

RBM39 levels (western blot) [1]: destabilization | RBM39 levels (western blot) [2]: destabilization
SMILES: NS(=O)(=O)c1ccc(S(=O)(=O)Nc2cccc3c(Cl)c[nH]c23)cc1 [indisulam]
Cytotoxic activity / sensitivity in COPS8- or CAND1-modified cells ([3]; KBM7 cells modified in COPS8 or CAND1 versus non-modified control): resistance to indisulam in both genetic backgrounds; also recorded: reduced activity | Resistance of mutant cells in cellular viability assay ([3]; KBM7 cells mutated in CAND1, UBE2M, COPS8, COPS7B or GPS1 versus wild type): caused resistance | DCAF15 re-stabilization (luciferase, fold-change over DMSO) ([4]; HiBit knock-in live cells, added together with CSN5i-3 (FIG. 15)): rescues DCAF15 from auto-degradation; also recorded: DCAF15 re-stabilization | DCAF15 re-stabilization (luciferase, fold-change over DMSO) ([4]; live cells, 10 uM, added together with CSN5i-3 (FIG. 17)): rescues DCAF15 from auto-degradation; also recorded: DCAF15 re-stabilization | DCAF15 stabilization (relative luciferase signal over time) [5]: pronounced stabilization of DCAF15 over time; also recorded: identified as positive hits; also recorded: significant stabilization of DCAF15 over time
